Reference: patent US11058652B2, “Methods for treatment of Prader-Willi syndrome” (Yissum Research Development Company of the Hebrew …, priority 2016, dated 2021)

Test system: Magel2-null mice
Test: Effect of HU-671 on preventing bone loss in female Magel2 mice (μCT of distal femoral metaphysis)
Assay type: in vivo
Settings: 0.5 mg/kg IP daily for 6 weeks
Protocol: The effect of HU-671 on preventing bone loss in female Magel2 mice and their littermates as controls was tested. Forty (40) 6-week old female mice were treated daily with HU-671 (0.5 mg/kg, IP) for a period of 6 weeks. Twenty-four (24) hours following the last administration of HU-671, a complete structural analysis of the trabecular and cortical bone in the distal femoral metaphysis was performed. The femora were fixed in phosphate buffered formalin for 48 hours and further kept at 70% ethanol. They were examined by a micro computed tomography (μCT) system. Scans were performed at 20-μm resolution in all three spatial dimensions. The mineralized tissues were differentially segmented by a global thresholding procedure.

`CCCCCCCC/C=C\CCCCCCCC(=O)NC(C)(CO)C(=O)O` (racemic) [HU-671, N-oleoyl α-methyl-DL-serine] was tested, and the “Tb.N (trabecular number)” value was “increasing”, the “Tb.Th (trabecular thickness)” value was “enhancing” and the “bone volume density (BV/TV)” value was “stimulated increase”. The “connectivity density in the trabecular bone (Conn.D)” value was “significantly rescued”, the cortical parameters was “improved” and the “reduction in Cort.Th (cortical thickness)” value was “completely prevent”. For the same molecule, the trabecular bone loss (vs vehicle-treated) was “completely prevented”.
